Reference: patent publication US11396504B2, “Alkoxybenzo-five-membered (six-membered) heterocyclic amine compound and pharmaceutical use thereof” (FUDAN UNIVERSITY, priority 2018, dated 2022)

Experiments:
[1] = target: T1, Sphingomyelin Synthase 2 (SMS2 pure enzyme) (Homo sapiens, UniProt Q8NHU3); experiment: In vitro SMS2 pure enzyme inhibition, HPLC fluorogenic quantitative detecting method (C6-NBD-Ceramide to C6-NBD-SM); assay type: biochemical; settings: for Selectivity ratio: SMS1 IC50 relative to SMS2 IC50; for IC50: SMS2 pure enzyme, five concentrations, three parallel groups, experimental value
T1 construct: Yu, Cao research group of National Protein Science Center (Shanghai)
T1 sequence (Q8NHU3 1-365): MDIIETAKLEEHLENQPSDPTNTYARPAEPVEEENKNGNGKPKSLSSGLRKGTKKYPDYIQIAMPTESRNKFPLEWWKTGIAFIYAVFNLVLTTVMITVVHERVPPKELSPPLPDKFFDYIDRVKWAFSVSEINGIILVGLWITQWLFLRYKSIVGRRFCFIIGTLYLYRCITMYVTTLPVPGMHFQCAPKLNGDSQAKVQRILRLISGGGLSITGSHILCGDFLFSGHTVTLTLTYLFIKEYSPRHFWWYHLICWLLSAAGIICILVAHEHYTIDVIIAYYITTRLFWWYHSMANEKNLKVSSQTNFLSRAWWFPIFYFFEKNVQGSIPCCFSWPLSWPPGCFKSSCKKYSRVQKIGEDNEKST
Method: Add […] SMS2 pure enzyme DDM solution (total protein content 1.5 μg/μL), 1 μL test compound in DMSO solution or blank DMSO solution, 79.7 μL DDM buffer to 1.5 mL Eppendorf tube, vortex 30 seconds, let stand at room temperature for 5 min. Then add 20 μL DDM buffer containing 1 μL DMPC in ethanol (40 mmol/L) and 1 μL C6-NBD-Ceramide in DMSO (1.16 mmol/L). After vortexing for 30 seconds, Incubate for 0.5 h under water bath at 37° C. Then remove, add 200 μL of absolute ethanol, and vortex for 30 seconds. Take out 200 μL of the mixture and store it at 4° C. for high performance liquid chromatography analysis.
(§1) Using the same HPLC fluorogenic quantitative detecting method as reference (Xiaodong Deng; Hong Sun; et al. Analytical Letters, 2012, 45:12, 1581-1589) to analyses samples obtained above. Analysize and record peak areas of C6-NBD-SM (Asm) and C6-NBD-Ceramide (Acer) of each sample from blank group, positive control group (compound D2) and under tested compound group. Calculate inhibition rate from the formula below: […]
The DMSO stock solution of under tested compound (6 mM) was diluted stepwise into five concentration gradient. 1 μL solution of each concentration was added into the trial system to prepare samples with the method mentioned in the first step of application case 15. The Asm values of the five concentration solution of tested compound were measured (compound D2 is a positive control), and the inhibition rate under the five concentration were calculated and fitted to obtain median inhibitory concentration (IC50). Each compound was measured three parallel groups. SMS2 median inhibitory concentration and SMS1 single inhibitory concentration (50 μM) of Scheme I-1˜I-38, and SMS1 median inhibitory concentration of some compounds are listed below in Table 1.

[2] = target: T2, Sphingomyelin Synthase 1 (SMS1 pure enzyme) (Homo sapiens, UniProt Q86VZ5); experiment: In vitro SMS1 pure enzyme inhibition, HPLC fluorogenic quantitative detecting method; assay type: biochemical
T2 construct: Yu, Cao research group of National Protein Science Center (Shanghai)
T2 sequence (Q86VZ5 1-413): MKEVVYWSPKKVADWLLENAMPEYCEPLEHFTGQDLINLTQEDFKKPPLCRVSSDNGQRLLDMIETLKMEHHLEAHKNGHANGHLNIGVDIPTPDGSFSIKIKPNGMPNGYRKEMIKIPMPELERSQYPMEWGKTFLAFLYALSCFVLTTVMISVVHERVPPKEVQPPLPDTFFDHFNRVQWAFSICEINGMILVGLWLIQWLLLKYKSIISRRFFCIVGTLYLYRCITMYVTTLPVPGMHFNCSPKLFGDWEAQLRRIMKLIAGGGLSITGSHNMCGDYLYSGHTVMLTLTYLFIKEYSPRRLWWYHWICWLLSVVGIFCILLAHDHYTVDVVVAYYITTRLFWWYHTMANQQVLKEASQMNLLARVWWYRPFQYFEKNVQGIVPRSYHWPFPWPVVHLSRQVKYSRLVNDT
Description: Referring to the above SMS2 inhibitory activity detection method, and using SMS1 pure enzyme instead of SMS2 pure enzyme for corresponding operation.
as §1
Part 4. Determination of SMS1 Median Inhibitory Concentration (IC50) and SMS1 Single Concentration (50 μM) Inhibitory Concentration of Alkoxybenzeno Five- or Six-Member Heterocyclic Amines (Scheme I-1˜I-38)
The experiment can be carried out with the corresponding concentration according to the operation similar to the determination of the median inhibitory concentration (IC50) of SMS2.

SMILES	Selectivity ratio [1]	IC50 [1] [nM]	IC50 [2] [nM]	inhibition at 50 µM ([2]; single concentration 50 μM) [%]	SMS1 Inhibition (50 μM) ([2]; single concentration 50 μM) [%]
CCc1ccccc1COc1cccc2onc(Nc3cccnc3)c12 [Scheme I-1, 4-((2-ethylbenzyl)oxy)-N-(pyridin-3-yl)benzo[d]isoxazol-3-amine]	342	117	40000	65	–
FC(F)(F)Oc1ccc(Cl)cc1COc1cccc2onc(Nc3cccnc3)c12 [Scheme I-3, 4-((5-chloro-2-(trifluoromethoxy)benzyl)oxy)-N-(pyridin-3-yl)benzo[d]isoxazol-3-amine]	–	2000	–	49	–
FC(F)(F)c1ccccc1COc1cccc2onc(Nc3cccnc3)c12 [Scheme I-13, 4-((2-Trifluoromethylbenzyl)oxy)-N-(pyridin-3-yl)benzo[d]isoxazole-3-amine]	–	255	–	21	–
FC(F)(F)c1cccc(COc2cccc3onc(Nc4cccnc4)c23)c1 [Scheme I-14, 4-((3-Trifluoromethylbenzyl)oxy)-N-(pyridin-3-yl)benzo[d]isoxazole-3-amine]	–	486	–	25	–
COc1ccccc1COc1cccc2onc(Nc3cccnc3)c12 [Scheme I-16, 4-((2-Methoxybenzyl)oxy)-N-(pyridin-3-yl)benzo[d]isoxazol-3-amine]	201	239	48000	49	–
FC(F)(F)Oc1ccccc1COc1cccc2onc(Nc3cccnc3)c12 [Scheme I-19, 4-((2-Trifluoromethoxybenzyl)oxy)-N-(pyridin-3-yl)benzo[d]-isoxazol-3-amine]	726	107	67000	59	–
FC(F)(F)Oc1cccc(COc2cccc3onc(Nc4cccnc4)c23)c1 [Scheme I-20, 4-((3-Trifluoromethoxybenzyl)oxy)-N-(pyridin-3-yl)benzo[d]-isoxazol-3-amine]	–	1270	–	30	–
N#Cc1ccccc1COc1cccc2onc(Nc3cccnc3)c12 [Scheme I-22, 4-((2-Cyanobenzyl)oxy)-N-(pyridin-3-yl)benzo[d]isoxazol-3-amine]	–	4140	–	4	–
CN(c1cccnc1)c1noc2cccc(OCc3c(Cl)cccc3Cl)c12 [Scheme I-28, 4-((2,6-dichlorobenzyl)oxy)-N-methyl-N-(pyridin-3-yl)benzo[d]isoxazol-3-amine]	–	–	–	29	–
c1ccc(COc2cccc3[nH]nc(Nc4cccnc4)c23)cc1 [Scheme I-29, 4-(benzyloxy)-N-(pyridin-3-yl)-1H-indazol-3-amine]	–	–	–	-7	–
Cn1nc(Nc2cccnc2)c2c(OCc3ccccc3)cccc21 [Scheme I-30, 4-(benzyloxy)-1-methyl-N-(pyridin-3-yl)-1H-indazol-3-amine]	–	–	–	1	–
c1ccc(COc2cccc3ccnc(Nc4cccnc4)c23)cc1 [Scheme I-32, 8-(benzyloxy)-N-(pyridin-3-yl)isoquinolin-1-amine]	–	–	–	18	–
CN(C)CC(=O)Nc1noc2cccc(OCc3cc(F)ccc3Cl)c12 [Scheme I-34, N-(4-((2-chloro-5-fluorobenzyl)oxy)benzo[d]isoxazol-3-yl)-2-(dimethylamino)acetamide]	–	–	–	3	–
CC(C)(C)OC(=O)N1CCC(CCCOc2cccc3onc(Nc4cccnc4)c23)CC1 [Scheme I-40, Tert-Butyl 4-(3-((3-(pyridin-3-ylamino)benzo[d]isoxazol-4-yl)oxy)propyl)piperidine-1-carboxylate]	–	–	–	9	–

The remaining lines, values ahead:

Selectivity ratio [1]	IC50 [1] [nM]	IC50 [2] [nM]	inhibition at 50 µM ([2]; single concentration 50 μM) [%]	SMS1 Inhibition (50 μM) ([2]; single concentration 50 μM) [%]	SMILES
539	102	55000	44	–	Fc1ccc(Cl)c(COc2cccc3onc(Nc4cccnc4)c23)c1 [Scheme I-2, 4-((2-Chloro-5-fluorobenzyl)oxy)-N-(pyridin-3-yl)benzo[d]-isoxazol-3-amine]
–	660	–	6	–	Fc1ccccc1COc1cccc2onc(Nc3cccnc3)c12 [Scheme I-4, 4-((2-fluorobenzyl)oxy)-N-(pyridin-3-yl)benzo[d]isoxazol-3-amine]
–	156	–	6	–	Fc1cccc(COc2cccc3onc(Nc4cccnc4)c23)c1 [Scheme I-5, 4-((3-fluorobenzyl)oxy)-N-(pyridin-3-yl)benzo[d]isoxazol-3-amine]
–	1520	–	7	–	Fc1ccc(COc2cccc3onc(Nc4cccnc4)c23)cc1 [Scheme I-6, 4-((4-fluorobenzyl)oxy)-N-(pyridin-3-yl)benzo[d]isoxazol-3-amine]
292	270	79000	–	41	Clc1ccccc1COc1cccc2onc(Nc3cccnc3)c12 [Scheme I-7, 4-((2-chlorobenzyl)oxy)-N-(pyridin-3-yl)benzo[d]isoxazol-3-amine]
840	94	79000	44	–	Clc1cccc(COc2cccc3onc(Nc4cccnc4)c23)c1 [Scheme I-8, 4-((3-chlorobenzyl)oxy)-N-(pyridin-3-yl)benzo[d]isoxazol-3-amine]
–	> 10000	–	5	–	Clc1ccc(COc2cccc3onc(Nc4cccnc4)c23)cc1 [Scheme I-9, 4-((4-chlorobenzyl)oxy)-N-(pyridin-3-yl)benzo[d]isoxazol-3-amine]
140	498	70000	41	–	Cc1ccccc1COc1cccc2onc(Nc3cccnc3)c12 [Scheme I-10, 4-((2-methylbenzyl)oxy)-N-(pyridin-3-yl)benzo[d]isoxazol-3-amine]
–	190	–	20	–	Cc1cccc(COc2cccc3onc(Nc4cccnc4)c23)c1 [Scheme I-11, 4-((3-methylbenzyl)oxy)-N-(pyridin-3-yl)benzo[d]isoxazol-3-amine]
–	–	–	5	–	Cc1ccc(COc2cccc3onc(Nc4cccnc4)c23)cc1 [Scheme I-12, 4-((4-methylbenzyl)oxy)-N-(pyridin-3-yl)benzo[d]isoxazol-3-amine]
–	> 10000	–	9	–	FC(F)(F)c1ccc(COc2cccc3onc(Nc4cccnc4)c23)cc1 [Scheme I-15, 4-((4-Trifluoromethylbenzyl)oxy)-N-(pyridin-3-yl)benzo[d]isoxazole-3-amine]
–	523	–	17	–	COc1cccc(COc2cccc3onc(Nc4cccnc4)c23)c1 [Scheme I-17, 4-((3-Methoxybenzyl)oxy)-N-(pyridin-3-yl)benzo[d]isoxazol-3-amine]
–	–	–	-5	–	COc1ccc(COc2cccc3onc(Nc4cccnc4)c23)cc1 [Scheme I-18, 4-((4-Methoxybenzyl)oxy)-N-(pyridin-3-yl)benzo[d]isoxazol-3-amine]
–	> 10000	–	5	–	FC(F)(F)Oc1ccc(COc2cccc3onc(Nc4cccnc4)c23)cc1 [Scheme I-21, 4-((4-Trifluoromethoxybenzyl)oxy)-N-(pyridin-3-yl)benzo[d]-isoxazol-3-amine]
–	–	–	-18	–	N#Cc1ccc(COc2cccc3onc(Nc4cccnc4)c23)cc1 [Scheme I-24, 4-((4-Cyanobenzyl)oxy)-N-(pyridin-3-yl)benzo[d]isoxazol-3-amine]
